In the kinase profiling compilation of Christmann-Franck et al. (2016):

Key:
Experiment in all cases: radiometric filter-binding kinase assay, Kinase HotSpot
Conditions in all cases: compound 0.5 µM; ATP 10 µM
GRK7 (human) = GRK7 (human) (UniProt Q8WTQ7)
MINK1 (human) = MINK1 (human) (UniProt Q8N4C8)
CDK9 CCNT1 (human) = CDK9 CCNT1 (human) (UniProt P50750+O60563)
BRSK1 (human) = BRSK1 (human) (UniProt Q8TDC3)
JAK2 JH1 JH2 (human) = JAK2 JH1 JH2 (human) (UniProt O60674)
CDK2 CCNE1 (human) = CDK2 CCNE1 (human) (UniProt P24941+P24864)
MYLK2 (human) = MYLK2 (human) (UniProt Q9H1R3)
MYLK2 (human), sequence (Q9H1R3 whole entry, looked up): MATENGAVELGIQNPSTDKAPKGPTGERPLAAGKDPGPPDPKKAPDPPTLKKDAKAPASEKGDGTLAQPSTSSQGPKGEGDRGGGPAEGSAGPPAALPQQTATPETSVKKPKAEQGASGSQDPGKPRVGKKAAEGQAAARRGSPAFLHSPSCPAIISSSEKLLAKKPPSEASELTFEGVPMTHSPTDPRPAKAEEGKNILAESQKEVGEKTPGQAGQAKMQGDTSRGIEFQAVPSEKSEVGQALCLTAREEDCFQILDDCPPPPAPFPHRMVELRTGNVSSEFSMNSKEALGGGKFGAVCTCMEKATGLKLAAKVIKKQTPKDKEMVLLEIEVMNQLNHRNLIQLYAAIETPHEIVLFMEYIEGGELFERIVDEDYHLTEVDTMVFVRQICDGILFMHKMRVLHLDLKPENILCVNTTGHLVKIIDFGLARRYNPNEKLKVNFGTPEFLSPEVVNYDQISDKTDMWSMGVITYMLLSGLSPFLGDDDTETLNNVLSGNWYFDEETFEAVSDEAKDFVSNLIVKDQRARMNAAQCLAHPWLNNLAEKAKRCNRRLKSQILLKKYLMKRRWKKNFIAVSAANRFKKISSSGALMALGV

DAPK3 (human) = DAPK3 (human) (UniProt O43293)
MAPK11 (human) = MAPK11 (human) (UniProt Q15759)
MAPK11 (human), sequence (Q15759 whole entry, looked up): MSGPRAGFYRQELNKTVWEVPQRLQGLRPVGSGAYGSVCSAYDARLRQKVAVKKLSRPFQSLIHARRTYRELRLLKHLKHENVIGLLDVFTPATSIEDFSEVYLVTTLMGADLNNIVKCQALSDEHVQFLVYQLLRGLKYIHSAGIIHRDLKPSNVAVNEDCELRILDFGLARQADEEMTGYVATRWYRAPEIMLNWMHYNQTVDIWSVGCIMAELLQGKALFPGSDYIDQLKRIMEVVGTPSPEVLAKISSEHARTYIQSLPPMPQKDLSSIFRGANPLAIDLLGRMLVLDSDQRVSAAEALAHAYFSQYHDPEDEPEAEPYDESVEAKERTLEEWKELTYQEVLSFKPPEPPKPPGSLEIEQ

EPHA7 (human) = EPHA7 (human) (UniProt Q15375)
MAP3K5 (human) = MAP3K5 (human) (UniProt Q99683)
MAP3K5 (human), sequence (Q99683 whole entry, looked up): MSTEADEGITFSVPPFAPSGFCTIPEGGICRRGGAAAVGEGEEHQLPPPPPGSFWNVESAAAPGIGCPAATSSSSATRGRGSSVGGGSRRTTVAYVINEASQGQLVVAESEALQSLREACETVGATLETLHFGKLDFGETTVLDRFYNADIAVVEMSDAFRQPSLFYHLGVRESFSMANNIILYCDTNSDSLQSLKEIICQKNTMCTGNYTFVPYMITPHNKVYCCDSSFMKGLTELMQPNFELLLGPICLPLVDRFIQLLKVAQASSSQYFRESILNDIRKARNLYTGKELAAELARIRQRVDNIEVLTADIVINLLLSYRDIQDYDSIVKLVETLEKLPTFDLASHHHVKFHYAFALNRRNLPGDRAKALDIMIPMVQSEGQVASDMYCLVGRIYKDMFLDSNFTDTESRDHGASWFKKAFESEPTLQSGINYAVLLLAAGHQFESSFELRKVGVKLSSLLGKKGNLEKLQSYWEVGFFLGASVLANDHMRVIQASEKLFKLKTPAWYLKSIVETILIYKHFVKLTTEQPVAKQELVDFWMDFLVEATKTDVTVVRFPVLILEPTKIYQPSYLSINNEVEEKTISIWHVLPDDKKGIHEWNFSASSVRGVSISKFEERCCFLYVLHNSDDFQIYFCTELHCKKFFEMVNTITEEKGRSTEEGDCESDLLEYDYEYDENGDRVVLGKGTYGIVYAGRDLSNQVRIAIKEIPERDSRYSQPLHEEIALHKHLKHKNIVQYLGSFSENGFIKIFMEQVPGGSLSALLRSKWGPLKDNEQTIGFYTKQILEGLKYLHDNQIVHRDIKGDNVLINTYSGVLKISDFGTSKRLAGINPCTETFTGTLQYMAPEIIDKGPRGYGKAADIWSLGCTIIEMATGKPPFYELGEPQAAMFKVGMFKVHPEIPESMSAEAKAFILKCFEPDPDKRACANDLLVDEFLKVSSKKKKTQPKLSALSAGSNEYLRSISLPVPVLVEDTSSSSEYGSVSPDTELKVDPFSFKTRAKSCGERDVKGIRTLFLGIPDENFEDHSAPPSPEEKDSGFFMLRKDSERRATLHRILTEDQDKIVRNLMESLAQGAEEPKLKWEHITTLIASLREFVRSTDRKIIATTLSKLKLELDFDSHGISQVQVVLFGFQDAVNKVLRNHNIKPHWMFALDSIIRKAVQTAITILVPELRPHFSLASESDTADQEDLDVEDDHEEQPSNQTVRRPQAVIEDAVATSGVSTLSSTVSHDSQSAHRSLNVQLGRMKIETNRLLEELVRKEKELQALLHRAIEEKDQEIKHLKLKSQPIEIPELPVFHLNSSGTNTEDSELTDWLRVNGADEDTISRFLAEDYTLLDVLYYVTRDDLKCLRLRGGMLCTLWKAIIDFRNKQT

DYRK4 (human) = DYRK4 (human) (UniProt Q9NR20)
ERBB4 (human) = ERBB4 (human) (UniProt Q15303)
CLK1 (human) = CLK1 (human) (UniProt P49759)
VRK1 (human) = VRK1 (human) (UniProt Q99986)
CSNK2A1 (human) = CSNK2A1 (human) (UniProt P68400)
CSNK2A1 (human), sequence (P68400 whole entry, looked up): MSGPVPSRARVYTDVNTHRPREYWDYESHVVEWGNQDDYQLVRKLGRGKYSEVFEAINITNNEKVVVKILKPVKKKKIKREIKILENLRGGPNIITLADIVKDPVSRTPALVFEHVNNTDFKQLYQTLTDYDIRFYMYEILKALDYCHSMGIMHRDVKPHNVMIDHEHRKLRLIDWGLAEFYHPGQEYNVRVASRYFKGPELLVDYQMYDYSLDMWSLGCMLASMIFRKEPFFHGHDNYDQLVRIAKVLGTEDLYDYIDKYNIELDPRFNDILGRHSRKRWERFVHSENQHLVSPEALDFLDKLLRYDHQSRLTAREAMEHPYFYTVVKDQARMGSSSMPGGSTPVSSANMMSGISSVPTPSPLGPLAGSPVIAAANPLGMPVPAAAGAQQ

WNK3 (human) = WNK3 (human) (UniProt Q9BYP7)
DAPK2 (human) = DAPK2 (human) (UniProt Q9UIK4)
ROS1 (human) = ROS1 (human) (UniProt P08922)
CLK4 (human) = CLK4 (human) (UniProt Q9HAZ1)
RPS6KA4 KD2 (human) = RPS6KA4 KD2 (human) (UniProt O75676)
RPS6KA5 KD2 (human) = RPS6KA5 KD2 (human) (UniProt O75582)
CLK3 (human) = CLK3 (human) (UniProt P49761)
TAOK3 (human) = TAOK3 (human) (UniProt Q9H2K8)
ACVRL1 (human) = ACVRL1 (human) (UniProt P37023)
MERTK (human) = MERTK (human) (UniProt Q12866)
ULK1 (human) = ULK1 (human) (UniProt O75385)
CDC42BPB (human) = CDC42BPB (human) (UniProt Q9Y5S2)
EPHB4 (human) = EPHB4 (human) (UniProt P54760)
EPHB4 (human), sequence (P54760 whole entry, looked up): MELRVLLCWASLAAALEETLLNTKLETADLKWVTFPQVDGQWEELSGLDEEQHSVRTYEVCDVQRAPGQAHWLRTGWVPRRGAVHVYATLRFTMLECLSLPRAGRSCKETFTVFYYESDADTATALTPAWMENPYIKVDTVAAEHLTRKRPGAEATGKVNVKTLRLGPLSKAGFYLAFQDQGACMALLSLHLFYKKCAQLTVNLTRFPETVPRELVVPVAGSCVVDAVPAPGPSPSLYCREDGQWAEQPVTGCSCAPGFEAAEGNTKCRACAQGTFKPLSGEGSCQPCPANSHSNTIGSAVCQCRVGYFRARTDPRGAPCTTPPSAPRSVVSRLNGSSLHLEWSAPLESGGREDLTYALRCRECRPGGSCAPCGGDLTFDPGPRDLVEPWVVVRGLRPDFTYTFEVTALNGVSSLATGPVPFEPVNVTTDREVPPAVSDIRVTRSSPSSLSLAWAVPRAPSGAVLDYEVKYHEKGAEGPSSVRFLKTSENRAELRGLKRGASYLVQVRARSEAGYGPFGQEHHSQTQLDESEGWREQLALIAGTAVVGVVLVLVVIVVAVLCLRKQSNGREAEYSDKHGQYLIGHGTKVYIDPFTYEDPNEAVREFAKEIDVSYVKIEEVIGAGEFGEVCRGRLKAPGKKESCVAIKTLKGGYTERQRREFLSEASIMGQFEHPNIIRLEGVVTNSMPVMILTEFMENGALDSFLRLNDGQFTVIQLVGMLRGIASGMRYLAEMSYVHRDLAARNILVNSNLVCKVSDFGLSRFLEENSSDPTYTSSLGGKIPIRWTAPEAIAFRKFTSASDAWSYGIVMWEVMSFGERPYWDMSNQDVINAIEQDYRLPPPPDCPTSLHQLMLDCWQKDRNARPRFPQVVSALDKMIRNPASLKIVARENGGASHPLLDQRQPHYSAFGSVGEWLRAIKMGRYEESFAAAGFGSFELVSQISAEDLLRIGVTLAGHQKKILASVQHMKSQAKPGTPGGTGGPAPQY

CSNK1A1 (human) = CSNK1A1 (human) (UniProt P48729)
LIMK1 (human) = LIMK1 (human) (UniProt P53667)
PTK2B (human) = PTK2B (human) (UniProt Q14289)
CDK6 CCND3 (human) = CDK6 CCND3 (human) (UniProt P30281+Q00534)
CAMK2G (human) = CAMK2G (human) (UniProt Q13555)
TEC (human) = TEC (human) (UniProt P42680)
TBK1 (human) = TBK1 (human) (UniProt Q9UHD2)
ROCK1 (human) = ROCK1 (human) (UniProt Q13464)
GSK3B (human) = GSK3B (human) (UniProt P49841)
CSK (human) = CSK (human) (UniProt P41240)
MAP3K9 (human) = MAP3K9 (human) (UniProt P80192)
PNCK (human) = PNCK (human) (UniProt Q6P2M8)
MAP4K5 (human) = MAP4K5 (human) (UniProt Q9Y4K4)

CDK9 CCNT1 (human), sequence (O60563 whole entry, looked up): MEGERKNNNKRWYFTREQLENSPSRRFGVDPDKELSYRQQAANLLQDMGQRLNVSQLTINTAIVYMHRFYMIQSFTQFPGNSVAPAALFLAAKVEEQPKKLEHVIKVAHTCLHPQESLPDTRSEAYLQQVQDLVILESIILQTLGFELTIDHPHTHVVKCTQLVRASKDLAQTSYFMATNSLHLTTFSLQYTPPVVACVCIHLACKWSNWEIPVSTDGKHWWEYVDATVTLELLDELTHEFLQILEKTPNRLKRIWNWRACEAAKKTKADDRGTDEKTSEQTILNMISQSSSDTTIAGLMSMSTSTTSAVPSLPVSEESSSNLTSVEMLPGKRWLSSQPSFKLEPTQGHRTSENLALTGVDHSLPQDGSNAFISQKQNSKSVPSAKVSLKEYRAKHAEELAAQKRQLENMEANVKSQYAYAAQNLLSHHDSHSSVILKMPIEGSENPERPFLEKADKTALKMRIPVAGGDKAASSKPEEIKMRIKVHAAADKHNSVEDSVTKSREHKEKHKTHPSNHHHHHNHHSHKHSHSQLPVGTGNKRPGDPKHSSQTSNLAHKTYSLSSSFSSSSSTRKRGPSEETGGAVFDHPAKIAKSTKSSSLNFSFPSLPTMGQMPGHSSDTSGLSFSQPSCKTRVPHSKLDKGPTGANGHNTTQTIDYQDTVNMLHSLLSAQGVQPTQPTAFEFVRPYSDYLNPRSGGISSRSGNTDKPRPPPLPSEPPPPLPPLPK
CDK9 CCNT1 (human), sequence (P50750 whole entry, looked up): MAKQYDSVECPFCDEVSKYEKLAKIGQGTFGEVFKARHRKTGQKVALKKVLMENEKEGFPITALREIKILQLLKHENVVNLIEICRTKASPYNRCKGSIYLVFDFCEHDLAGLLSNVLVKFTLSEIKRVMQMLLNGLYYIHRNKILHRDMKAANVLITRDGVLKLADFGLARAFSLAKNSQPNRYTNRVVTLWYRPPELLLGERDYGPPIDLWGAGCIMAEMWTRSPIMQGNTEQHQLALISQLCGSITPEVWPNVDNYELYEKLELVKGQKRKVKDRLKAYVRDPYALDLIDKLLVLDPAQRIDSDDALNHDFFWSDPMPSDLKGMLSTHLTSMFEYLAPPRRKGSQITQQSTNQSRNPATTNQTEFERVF

`COc1cccc(-c2cc(=O)c3ccccc3o2)c1N` was tested, and the residual activity (GRK7 (human)) was 103%, the residual activity (MINK1 (human)) was 96.2% and the residual activity (CDK9 CCNT1 (human)) was 93.6%. For the same compound, the residual activity (BRSK1 (human)) was 84.9%, the residual activity (JAK2 JH1 JH2 (human)) was 104% and the residual activity (CDK2 CCNE1 (human)) was 95.3%. For the same compound, the residual activity (MYLK2 (human)) was 101%, the residual activity (DAPK3 (human)) was 101% and the residual activity (MAPK11 (human)) was 108%. It also gave a residual activity (EPHA7 (human)) of 98.6%, a residual activity (MAP3K5 (human)) of 103% and a residual activity (DYRK4 (human)) of 108%. It also gave a residual activity (ERBB4 (human)) of 94.7%, a residual activity (CLK1 (human)) of 97.7% and a residual activity (VRK1 (human)) of 89.4%. It also gave a residual activity (CSNK2A1 (human)) of 94.9%, a residual activity (WNK3 (human)) of 96.3% and a residual activity (DAPK2 (human)) of 107%. It also gave a residual activity (ROS1 (human)) of 97.5%, a residual activity (CLK4 (human)) of 86.3% and a residual activity (RPS6KA4 KD2 (human)) of 103%. The residual activity (RPS6KA5 KD2 (human)) was 96.4%, the residual activity (CLK3 (human)) was 95.4% and the residual activity (TAOK3 (human)) was 77%. It also gave a residual activity (ACVRL1 (human)) of 93.5%, a residual activity (MERTK (human)) of 98% and a residual activity (ULK1 (human)) of 104%. It also gave a residual activity (CDC42BPB (human)) of 94.8%, a residual activity (EPHB4 (human)) of 101% and a residual activity (CSNK1A1 (human)) of 95.6%. For the same compound, the residual activity (LIMK1 (human)) was 96.1%, the residual activity (PTK2B (human)) was 91.2% and the residual activity (CDK6 CCND3 (human)) was 99.3%. It also gave a residual activity (CAMK2G (human)) of 96.6%, a residual activity (TEC (human)) of 99.2% and a residual activity (TBK1 (human)) of 94.3%. For the same compound, the residual activity (ROCK1 (human)) was 95.6%, the residual activity (GSK3B (human)) was 95.7% and the residual activity (CSK (human)) was 83.7%. For the same compound, the residual activity (MAP3K9 (human)) was 93.2%, the residual activity (PNCK (human)) was 96.8% and the residual activity (MAP4K5 (human)) was 91.1%.

`O=C(O)c1ccc2c3c1cccc3c(=O)n1c3ccccc3nc21` showed a residual activity (GRK7 (human)) of 102%, a residual activity (MINK1 (human)) of 79.8% and a residual activity (CDK9 CCNT1 (human)) of 78.3%. It also gave a residual activity (BRSK1 (human)) of 89%, a residual activity (JAK2 JH1 JH2 (human)) of 86.7% and a residual activity (CDK2 CCNE1 (human)) of 90.9%. The residual activity (MYLK2 (human)) was 99.6%, the residual activity (DAPK3 (human)) was 51.3% and the residual activity (MAPK11 (human)) was 105%. For the same compound, the residual activity (EPHA7 (human)) was 103%, the residual activity (MAP3K5 (human)) was 102% and the residual activity (DYRK4 (human)) was 95.9%. It also gave a residual activity (ERBB4 (human)) of 105%, a residual activity (CLK1 (human)) of 93.8% and a residual activity (VRK1 (human)) of 103%. The residual activity (CSNK2A1 (human)) was 28.3%, the residual activity (WNK3 (human)) was 95.8% and the residual activity (DAPK2 (human)) was 91.9%. It also gave a residual activity (ROS1 (human)) of 95.2%, a residual activity (CLK4 (human)) of 82.8% and a residual activity (RPS6KA4 KD2 (human)) of 110%. For the same compound, the residual activity (RPS6KA5 KD2 (human)) was 104%, the residual activity (CLK3 (human)) was 95.4% and the residual activity (TAOK3 (human)) was 93.1%. The residual activity (ACVRL1 (human)) was 103%, the residual activity (MERTK (human)) was 77.7% and the residual activity (ULK1 (human)) was 83.5%. For the same compound, the residual activity (CDC42BPB (human)) was 109%, the residual activity (EPHB4 (human)) was 90.6% and the residual activity (CSNK1A1 (human)) was 97.6%. It also gave a residual activity (LIMK1 (human)) of 92.7%, a residual activity (PTK2B (human)) of 69.2% and a residual activity (CDK6 CCND3 (human)) of 105%. For the same compound, the residual activity (CAMK2G (human)) was 96.5%, the residual activity (TEC (human)) was 123% and the residual activity (TBK1 (human)) was 20.2%. The residual activity (ROCK1 (human)) was 104%, the residual activity (GSK3B (human)) was 100% and the residual activity (CSK (human)) was 101%. The residual activity (MAP3K9 (human)) was 64.4%, the residual activity (PNCK (human)) was 101% and the residual activity (MAP4K5 (human)) was 47%.

Work on `O=c1c2ccccc2[nH]c(=S)n1CCN1CCC(=C(c2ccc(F)cc2)c2ccc(F)cc2)CC1` yielded a residual activity (GRK7 (human)) of 111%, a residual activity (MINK1 (human)) of 94.4% and a residual activity (CDK9 CCNT1 (human)) of 102%. For the same compound, the residual activity (BRSK1 (human)) was 98.3%, the residual activity (JAK2 JH1 JH2 (human)) was 92% and the residual activity (CDK2 CCNE1 (human)) was 97.3%. It also gave a residual activity (MYLK2 (human)) of 99.9%, a residual activity (DAPK3 (human)) of 102% and a residual activity (MAPK11 (human)) of 99.3%. The residual activity (EPHA7 (human)) was 96.9%, the residual activity (MAP3K5 (human)) was 98.1% and the residual activity (DYRK4 (human)) was 97.5%. For the same compound, the residual activity (ERBB4 (human)) was 87.4%, the residual activity (CLK1 (human)) was 113% and the residual activity (VRK1 (human)) was 95.9%. It also gave a residual activity (CSNK2A1 (human)) of 97.9%, a residual activity (WNK3 (human)) of 107% and a residual activity (DAPK2 (human)) of 104%. For the same compound, the residual activity (ROS1 (human)) was 98.8%, the residual activity (CLK4 (human)) was 103% and the residual activity (RPS6KA4 KD2 (human)) was 103%. The residual activity (RPS6KA5 KD2 (human)) was 105%, the residual activity (CLK3 (human)) was 101% and the residual activity (TAOK3 (human)) was 92.4%. For the same compound, the residual activity (ACVRL1 (human)) was 101%, the residual activity (MERTK (human)) was 97% and the residual activity (ULK1 (human)) was 98.1%. It also gave a residual activity (CDC42BPB (human)) of 106%, a residual activity (EPHB4 (human)) of 97.1% and a residual activity (CSNK1A1 (human)) of 106%. For the same compound, the residual activity (LIMK1 (human)) was 98.4%, the residual activity (PTK2B (human)) was 98.5% and the residual activity (CDK6 CCND3 (human)) was 98.2%. It also gave a residual activity (CAMK2G (human)) of 97.9%, a residual activity (TEC (human)) of 110% and a residual activity (TBK1 (human)) of 104%. It also gave a residual activity (ROCK1 (human)) of 97.2%, a residual activity (GSK3B (human)) of 112% and a residual activity (CSK (human)) of 119%. The residual activity (MAP3K9 (human)) was 111%, the residual activity (PNCK (human)) was 109% and the residual activity (MAP4K5 (human)) was 98.8%.
